Results on ten compounds are retold here after paper PMC9892271 (Journal of medicinal chemistry, 2023).

Read-outs that look alike come from different tables or passages of the source.

The target of one experiment is T1, NTMT1 (Homo sapiens, UniProt Q9BV86).
T1 sequence (Q9BV86 1-222): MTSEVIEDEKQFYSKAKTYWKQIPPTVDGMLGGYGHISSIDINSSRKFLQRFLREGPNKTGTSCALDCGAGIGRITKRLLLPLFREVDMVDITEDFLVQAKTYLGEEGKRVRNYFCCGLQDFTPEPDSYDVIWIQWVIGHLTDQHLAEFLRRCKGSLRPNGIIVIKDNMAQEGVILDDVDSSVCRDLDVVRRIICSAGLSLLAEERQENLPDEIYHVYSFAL

The target of the next experiment is T2, NNMT (Homo sapiens, UniProt P40261).
T2 sequence (P40261 1-264): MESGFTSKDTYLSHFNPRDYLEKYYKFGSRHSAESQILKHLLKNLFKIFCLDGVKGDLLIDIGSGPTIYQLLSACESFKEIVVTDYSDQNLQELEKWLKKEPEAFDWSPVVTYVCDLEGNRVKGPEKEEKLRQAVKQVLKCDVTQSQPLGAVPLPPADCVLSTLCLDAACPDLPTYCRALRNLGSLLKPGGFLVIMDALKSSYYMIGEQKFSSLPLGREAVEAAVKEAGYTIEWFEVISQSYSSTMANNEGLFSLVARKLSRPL
Description: SAHH-coupled selectivity assay, NNMT. Format: biochemical.

The next experiment concerns the target PRMT1 (Homo sapiens, UniProt Q99873). The experiment is described as follows: SAHH-coupled selectivity assay, PRMT1. Format: biochemical.
A further experiment has as its target SAHH (Homo sapiens, UniProt P23526). The experiment is described as follows: selectivity assay, coupling enzyme SAHH. Format: biochemical.
A further experiment concerns the target MLL1 complex (Homo sapiens, UniProt Q03164). The experiment is described as follows: SAM-dependent methyltransferase panel. Format: biochemical. The settings on record: single dose of 50 μM.
In the next experiment the target is TbPRMT7 (Trypanosoma brucei brucei, UniProt Q582G4). The experiment is described as follows: SAHH-coupled selectivity assay, PRMT7. Format: biochemical.
The next experiment has as its target T3, SETD7 (Homo sapiens, UniProt Q8WTS6).
T3 sequence (Q8WTS6 1-366): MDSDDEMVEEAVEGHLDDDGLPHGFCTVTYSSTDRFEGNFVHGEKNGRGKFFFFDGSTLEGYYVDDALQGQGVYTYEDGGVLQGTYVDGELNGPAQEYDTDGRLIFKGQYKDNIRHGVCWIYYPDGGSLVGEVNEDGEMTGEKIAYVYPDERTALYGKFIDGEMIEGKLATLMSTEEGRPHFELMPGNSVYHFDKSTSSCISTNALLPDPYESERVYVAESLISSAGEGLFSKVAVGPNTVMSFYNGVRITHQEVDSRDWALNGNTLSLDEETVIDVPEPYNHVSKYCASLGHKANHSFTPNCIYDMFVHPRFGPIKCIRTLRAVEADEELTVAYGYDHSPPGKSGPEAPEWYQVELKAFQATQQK
Description: SAHH-coupled selectivity assay, SETD7. It is filed as biochemical.

Another experiment addresses NTMT2 (Homo sapiens, UniProt Q5VVY1). The experiment is described as follows: SAM-dependent methyltransferase panel. Format: biochemical. The settings on record: single dose of 50 μM.
The next experiment addresses T4, G9a (Homo sapiens, UniProt Q96KQ7).
T4 sequence (Q96KQ7 1-1210): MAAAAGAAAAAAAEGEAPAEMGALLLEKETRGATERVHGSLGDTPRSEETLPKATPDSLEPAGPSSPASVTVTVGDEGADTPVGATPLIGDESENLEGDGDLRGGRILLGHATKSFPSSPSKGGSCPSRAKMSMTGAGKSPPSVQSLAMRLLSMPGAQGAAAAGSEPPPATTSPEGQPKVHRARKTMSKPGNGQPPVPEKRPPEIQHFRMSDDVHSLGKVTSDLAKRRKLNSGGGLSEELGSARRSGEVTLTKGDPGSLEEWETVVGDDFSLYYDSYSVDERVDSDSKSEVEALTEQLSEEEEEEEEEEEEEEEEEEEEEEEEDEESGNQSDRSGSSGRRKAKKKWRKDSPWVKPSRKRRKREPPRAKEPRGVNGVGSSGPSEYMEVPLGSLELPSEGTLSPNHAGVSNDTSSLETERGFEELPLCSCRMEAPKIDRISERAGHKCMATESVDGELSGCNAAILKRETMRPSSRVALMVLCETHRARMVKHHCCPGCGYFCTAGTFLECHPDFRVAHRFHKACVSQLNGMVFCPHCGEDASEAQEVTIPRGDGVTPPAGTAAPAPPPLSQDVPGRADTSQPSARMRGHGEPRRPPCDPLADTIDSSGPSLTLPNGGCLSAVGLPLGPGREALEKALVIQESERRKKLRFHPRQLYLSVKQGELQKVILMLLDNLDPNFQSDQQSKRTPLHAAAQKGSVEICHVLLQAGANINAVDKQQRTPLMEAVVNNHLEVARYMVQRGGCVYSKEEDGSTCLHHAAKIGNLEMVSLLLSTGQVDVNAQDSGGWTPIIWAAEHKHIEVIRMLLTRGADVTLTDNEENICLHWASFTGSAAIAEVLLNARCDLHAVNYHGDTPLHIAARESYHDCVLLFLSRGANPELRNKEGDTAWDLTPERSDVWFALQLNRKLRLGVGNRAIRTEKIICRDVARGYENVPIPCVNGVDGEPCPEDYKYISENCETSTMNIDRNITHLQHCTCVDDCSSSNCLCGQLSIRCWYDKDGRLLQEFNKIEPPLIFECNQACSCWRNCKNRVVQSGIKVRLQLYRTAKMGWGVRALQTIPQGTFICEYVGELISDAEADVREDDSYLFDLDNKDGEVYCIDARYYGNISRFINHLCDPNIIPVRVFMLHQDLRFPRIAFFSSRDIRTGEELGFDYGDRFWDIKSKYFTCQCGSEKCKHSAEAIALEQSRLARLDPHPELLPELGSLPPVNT
Description: SAHH-coupled selectivity assay, G9a. Format: biochemical.

Experiment [1] concerns me3-RCC1 and me3-SET in HEK293 cells. The experiment is described as follows: cellular N-methylation level study. It is filed as cell-based.
The next experiment concerns the target T5, GCS (Homo sapiens, UniProt Q16739).
T5 sequence (Q16739 1-394): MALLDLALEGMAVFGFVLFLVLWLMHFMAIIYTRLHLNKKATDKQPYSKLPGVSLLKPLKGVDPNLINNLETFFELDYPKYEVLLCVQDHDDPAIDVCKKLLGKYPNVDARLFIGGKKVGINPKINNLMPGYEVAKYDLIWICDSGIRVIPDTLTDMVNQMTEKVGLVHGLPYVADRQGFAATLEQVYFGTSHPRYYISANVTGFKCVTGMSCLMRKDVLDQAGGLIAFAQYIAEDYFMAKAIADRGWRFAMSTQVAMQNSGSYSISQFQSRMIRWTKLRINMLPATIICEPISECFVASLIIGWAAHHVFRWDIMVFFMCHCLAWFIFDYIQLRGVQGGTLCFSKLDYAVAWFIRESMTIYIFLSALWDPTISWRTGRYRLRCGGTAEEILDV
Format: cell-based. The following applies: 30 nM, HCT116 cells.

In experiment [2] the test system is me3-RCC1 and me3-SET in HEK293 cells. The settings on record: cited from earlier work.

Sequence of TbPRMT7 (Q582G4 whole entry): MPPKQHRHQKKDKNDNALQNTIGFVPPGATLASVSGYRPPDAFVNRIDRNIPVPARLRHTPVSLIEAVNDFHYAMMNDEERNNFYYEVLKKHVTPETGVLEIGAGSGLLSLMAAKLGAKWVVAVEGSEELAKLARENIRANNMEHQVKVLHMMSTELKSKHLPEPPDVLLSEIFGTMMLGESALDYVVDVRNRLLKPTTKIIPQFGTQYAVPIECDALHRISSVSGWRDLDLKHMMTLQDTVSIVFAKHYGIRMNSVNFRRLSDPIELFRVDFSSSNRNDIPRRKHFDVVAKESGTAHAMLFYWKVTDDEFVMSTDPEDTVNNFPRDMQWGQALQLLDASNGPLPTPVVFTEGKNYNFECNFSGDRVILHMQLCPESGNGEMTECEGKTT
Sequence of SAHH (P23526 whole entry, species assumed): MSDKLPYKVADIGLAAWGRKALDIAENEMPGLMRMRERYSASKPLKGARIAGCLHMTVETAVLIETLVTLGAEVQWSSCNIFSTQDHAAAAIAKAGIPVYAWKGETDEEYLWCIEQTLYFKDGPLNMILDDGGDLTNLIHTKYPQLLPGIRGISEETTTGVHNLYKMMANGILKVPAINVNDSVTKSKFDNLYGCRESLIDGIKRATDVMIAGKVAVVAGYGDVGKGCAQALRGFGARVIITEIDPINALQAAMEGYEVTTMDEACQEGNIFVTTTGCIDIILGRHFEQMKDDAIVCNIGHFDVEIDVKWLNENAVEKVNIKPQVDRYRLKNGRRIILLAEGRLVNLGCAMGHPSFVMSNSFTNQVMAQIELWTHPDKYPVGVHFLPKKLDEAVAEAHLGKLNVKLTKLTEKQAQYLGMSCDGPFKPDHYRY
Sequence of PRMT1 (Q99873 whole entry, species assumed): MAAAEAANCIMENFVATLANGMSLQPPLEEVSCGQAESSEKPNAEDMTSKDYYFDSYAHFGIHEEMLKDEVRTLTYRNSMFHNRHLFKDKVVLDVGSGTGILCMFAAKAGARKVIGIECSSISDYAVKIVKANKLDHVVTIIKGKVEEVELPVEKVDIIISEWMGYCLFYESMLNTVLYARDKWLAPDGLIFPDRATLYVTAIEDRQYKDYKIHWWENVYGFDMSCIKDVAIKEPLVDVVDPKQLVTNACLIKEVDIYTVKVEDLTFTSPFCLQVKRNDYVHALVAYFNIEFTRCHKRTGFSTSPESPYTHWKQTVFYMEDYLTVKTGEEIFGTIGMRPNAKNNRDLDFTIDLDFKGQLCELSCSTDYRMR
Sequence of NTMT2 (Q5VVY1 whole entry): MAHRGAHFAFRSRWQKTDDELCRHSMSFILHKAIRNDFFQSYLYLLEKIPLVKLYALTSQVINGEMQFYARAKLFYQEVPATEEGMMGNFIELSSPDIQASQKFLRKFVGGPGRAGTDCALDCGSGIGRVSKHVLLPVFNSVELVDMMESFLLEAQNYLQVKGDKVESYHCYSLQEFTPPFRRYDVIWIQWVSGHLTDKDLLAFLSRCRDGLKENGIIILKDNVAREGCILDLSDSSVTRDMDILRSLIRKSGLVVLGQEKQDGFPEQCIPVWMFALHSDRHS
Sequence of MLL1 complex (Q9C005 whole entry): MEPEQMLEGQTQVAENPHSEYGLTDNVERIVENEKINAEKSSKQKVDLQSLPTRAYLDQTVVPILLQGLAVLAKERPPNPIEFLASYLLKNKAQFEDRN
Sequence of MLL1 complex (Q03164 3745-3969): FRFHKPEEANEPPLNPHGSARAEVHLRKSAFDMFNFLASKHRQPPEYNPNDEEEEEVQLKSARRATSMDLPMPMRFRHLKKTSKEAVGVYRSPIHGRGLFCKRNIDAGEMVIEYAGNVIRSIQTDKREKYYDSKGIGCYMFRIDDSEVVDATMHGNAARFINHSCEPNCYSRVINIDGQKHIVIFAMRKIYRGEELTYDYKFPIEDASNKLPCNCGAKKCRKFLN
Sequence of MLL1 complex (Q15291 whole entry, further chain): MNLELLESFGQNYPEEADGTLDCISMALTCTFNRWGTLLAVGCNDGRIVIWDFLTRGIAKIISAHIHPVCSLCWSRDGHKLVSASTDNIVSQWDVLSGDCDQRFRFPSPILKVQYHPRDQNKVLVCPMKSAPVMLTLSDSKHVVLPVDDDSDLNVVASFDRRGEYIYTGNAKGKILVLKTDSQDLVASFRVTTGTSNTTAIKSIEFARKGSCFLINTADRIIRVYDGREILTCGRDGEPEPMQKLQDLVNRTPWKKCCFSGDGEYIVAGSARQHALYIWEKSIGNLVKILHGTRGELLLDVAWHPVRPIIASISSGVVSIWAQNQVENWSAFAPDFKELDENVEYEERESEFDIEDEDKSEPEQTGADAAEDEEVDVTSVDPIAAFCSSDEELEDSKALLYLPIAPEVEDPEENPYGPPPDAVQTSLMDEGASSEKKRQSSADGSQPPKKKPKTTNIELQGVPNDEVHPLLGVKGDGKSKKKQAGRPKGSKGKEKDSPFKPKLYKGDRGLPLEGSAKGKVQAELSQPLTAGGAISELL
Sequence of MLL1 complex (Q9UBL3 96-628, further chain): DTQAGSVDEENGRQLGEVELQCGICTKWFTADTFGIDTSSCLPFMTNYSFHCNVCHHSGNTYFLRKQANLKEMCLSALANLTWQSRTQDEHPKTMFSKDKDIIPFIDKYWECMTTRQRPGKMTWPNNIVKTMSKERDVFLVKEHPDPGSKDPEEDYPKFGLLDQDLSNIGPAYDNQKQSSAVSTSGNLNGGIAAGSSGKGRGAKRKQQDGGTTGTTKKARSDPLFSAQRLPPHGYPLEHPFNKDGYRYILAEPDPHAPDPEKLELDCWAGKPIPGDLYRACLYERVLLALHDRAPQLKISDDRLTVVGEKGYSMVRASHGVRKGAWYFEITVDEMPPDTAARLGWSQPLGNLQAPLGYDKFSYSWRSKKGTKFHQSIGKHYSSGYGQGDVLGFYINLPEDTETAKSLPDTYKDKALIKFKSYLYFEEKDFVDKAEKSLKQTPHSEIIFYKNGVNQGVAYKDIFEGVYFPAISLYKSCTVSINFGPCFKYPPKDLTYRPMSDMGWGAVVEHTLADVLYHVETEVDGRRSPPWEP

Regarding `CN1CCC[C@H](OC(=O)NC(C)(C)c2csc(-c3ccc(F)cc3)n2)C1` [Compound 5, (S)-1-methylpiperidin-3-yl (2-(2-(4-Fluorophenyl)thiazol-4-yl)propan-2-yl)carbamate], the “fold loss of potency compared to venglustat” value at NTMT1 (NTMT1 IC50) was “over 40 fold”.
Still for that read-out and setting: for `CCCN1CCC[C@H](OC(=O)NC(C)(C)c2csc(-c3ccc(F)cc3)n2)C1` [Compound 6, (S)-1-propylpiperidin-3-yl (2-(2-(4-Fluorophenyl)thiazol-4-yl)propan-2-yl)carbamate] the value was “over 40 fold”.
`CC(C)(NC(=O)OCCN1CCCCC1)c1csc(-c2ccc(F)cc2)n1` [Compound 7, 2-(Piperidin-1-yl)ethyl (2-(2-(4-Fluorophenyl)thiazol-4-yl)propan-2-yl)carbamate]: the “fold reduction compared to 6” value at NTMT1 (NTMT1 IC50) is on record as above 5 fold.
Take `CC(C)(NC(=O)Oc1cccnc1)c1csc(-c2ccc(F)cc2)n1` [Compound 8, Pyridin-3-yl (2-(2-(4-Fluorophenyl)thiazol-4-yl)propan-2-yl)carbamate]: on NTMT1, the “NTMT1 inhibition (in words)” value is “null activity”.
Take `CC(C)(NC(=O)N[C@@H]1CN2CCC1CC2)c1csc(-c2ccc(F)cc2)n1` [Compound 9, 1-(2-(2-(4-Fluorophenyl)thiazol-4-yl)propan-2-yl)-3-(quinuclidin-3-yl)urea]: the “fold loss of potency compared to venglustat” value at NTMT1 (NTMT1 IC50) was above 100 fold.
Regarding `CC(C)(C(=O)N[C@@H]1CN2CCC1CC2)c1csc(-c2ccc(F)cc2)n1` [Compound 10, 2-(2-(4-Fluorophenyl)thiazol-4-yl)-2-methyl-N-(quinuclidin-3-yl)propenamide], the “NTMT1 inhibition (in words)” value on NTMT1 is listed as “did not show any inhibition”.
As to `CC(C)(NC(=O)O[C@@H]1CN2CCC1CC2)c1csc(-c2ccc(F)c(O)c2)n1` [GD433], the inhibition – broadly, the share of the control response that was lost under treatment – against NNMT (10 μM) was “no significant inhibition”; against NNMT (30 μM), “no significant inhibition”; on NNMT (100 μM), “did not exhibit inhibition”; at PRMT1 (10 μM) it was “no significant inhibition”; against PRMT1 (30 μM), “no significant inhibition”; at PRMT1 (100 μM), 50%. Further, the inhibition entry at SAHH (10 μM) was “no significant inhibition”; against SAHH (30 μM), “no significant inhibition”; against SAHH (100 μM) it was “did not exhibit inhibition”; against MLL1 complex, ~ 25%; on TbPRMT7 (10 μM) it was “no significant inhibition”; against TbPRMT7 (30 μM), “no significant inhibition”. Moreover, the inhibition entry against TbPRMT7 (100 μM) is reported as “did not exhibit inhibition”; at SETD7 (10 μM), “no significant inhibition”; against SETD7 (30 μM) it was “no significant inhibition”; at SETD7 (100 μM), “did not exhibit inhibition”; on NTMT2 it was “potently inhibited”; against G9a (10 μM), “no significant inhibition”. Besides, the figures for the inhibition entry on G9a (30 μM) and on G9a (100 μM) were “no significant inhibition” and “did not exhibit inhibition”, respectively.
With `CC(C)(NC(=O)O[C@@H]1CN2CCC1CC2)c1csc(-c2cncnc2)n1` [YD2160], in [1] (up to 30 μM), the “change in me3-RCC1 or me3-SET” value is “did not induce any change”.
In the case of `CC(C)(NC(=O)O[C@@H]1CN2CCC1CC2)c1csc(-c2ccc(Cl)c(O)c2)n1` [YD2200], the “effect on me3-RCC1 and me3-SET” value in experiment [1] (1 μM) is “significantly reduces”. Further, the IC50 (commonly the concentration needed to halve the response being measured) in [1] (read-out: approximate IC50, me3-RCC1 and me3-SET) is around 0.3 µM.
In the case of `CC(C)(NC(=O)O[C@@H]1CN2CCC1CC2)c1csc(-c2ccc(F)cc2)n1` [venglustat, (S)-quinuclidin-3-yl (2-(2-(4-Fluorophenyl)thiazol-4-yl)propan-2-yl)carbamate], at GCS, the “inhibition of cellular GCS activity” value was “significantly inhibits”. Moreover, the IC50 was 0.5 µM in experiment [2] (cellular inhibition assay); around 0.3 µM in experiment [2] (read-out: approximate IC50, me3-RCC1 and me3-SET, HEK293 cells).
